Some test systems named below: 786-0 renal; TK-10 renal; U251 CNS; MDA-MB-435; NCI-H522 lung; SF-539 CNS; UACC-62 melanoma; LOX IMVI melanoma; A549 NSCLC; A498 renal.
What all share (test): NCI tumour cell line growth inhibition, 48 h

Molecules are shown by their SMILES.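 In this assay, cells in 96-well plates receive the compound at five concentrations for 48 hours. Endpoints are linearly interpolated between the surrounding concentrations. TGI: total growth inhibition.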 Where a SMILES comes first, the peptide text is derived from it. [ ]: non-standard residue; d: D form. The star is where a group is joined. Phe(4-NO2) = N[CH](Cc1ccc([N+](=O)[O-])cc1)C(=O)O; Boc = CC(C)(C)OC(=O)*

For the compound `Cc1cc2c(c(C(=O)NCC(=O)O)c1)Oc1c(cc(C)cc1C(=O)NCC(=O)O)S2`, the TGI in the assay with 786-0 renal, with TK-10 renal, in the assay on U251 CNS, with MDA-MB-435, in the assay with NCI-H522 lung and in the assay with SF-539 CNS was above 100 µM throughout. Also, the TGI with UACC-62 melanoma, with LOX IMVI melanoma and with A549 NSCLC was above 100 µM in each case.
For `Cc1ccc(N2C(=O)C3CSCN3C2=O)cc1` (configuration not stated), the TGI with U251 CNS, in the assay with A498 renal, with NCI-H522 lung, with SF-539 CNS, with UACC-62 melanoma and with LOX IMVI melanoma was above 100 µM in each case. This compound also displayed a TGI with A549 NSCLC above 100 µM.
Take `C/C(=C\Cc1ccc(F)cc1)CCCCCC/C(C)=C/Cc1ccc(F)cc1`: the TGI with 786-0 renal amounted to 21.9 µM; in the assay on TK-10 renal, 29.5 µM; with U251 CNS it was 37.8 µM; in the assay with MDA-MB-435 it was 39 µM; in the assay on NCI-H522 lung it was 21 µM; in the assay with SF-539 CNS it was 31.8 µM. Further, the TGI in the assay on UACC-62 melanoma worked out at 33 µM; with LOX IMVI melanoma, 19.9 µM; in the assay with A549 NSCLC, 31.7 µM.
For `COc1c(C)c(C/C=C(\C)CCCC(C)CCCC(C)CCCC(C)C)c(OC)c2ccccc12` (configuration not stated), the TGI in the assay with 786-0 renal, in the assay with TK-10 renal, with U251 CNS, with MDA-MB-435, in the assay on NCI-H522 lung and with SF-539 CNS was above 100 µM each time. Also, the TGI with UACC-62 melanoma, in the assay with LOX IMVI melanoma and with A549 NSCLC was above 100 µM throughout.
On to `COc1ccc(/C=C2\CCCc3ccccc3C2=O)cc1`, for which the TGI is 12.2 µM in the assay on 786-0 renal; above 96.6 µM in the assay with TK-10 renal; 35.1 µM in the assay with U251 CNS; 53.1 µM in the assay on MDA-MB-435; 1.71 µM with NCI-H522 lung; 5.11 µM in the assay with SF-539 CNS. Further, the results for the TGI with UACC-62 melanoma, with LOX IMVI melanoma and in the assay with A549 NSCLC were 26 µM, 17.4 µM and above 54.4 µM, respectively.
On to `COc1cccc(C(C#N)NNC(=O)c2c(Cl)c(Cl)c(Cl)c(Cl)c2-c2nc3ccc(C(=O)c4ccccc4)cc3[nH]2)c1O` (configuration not stated), for which the TGI in the assay on 786-0 renal is above 100 µM; with TK-10 renal it was above 100 µM; in the assay on U251 CNS, above 100 µM; with A498 renal, 7.29 µM; in the assay on LOX IMVI melanoma, above 100 µM; in the assay on A549 NSCLC, above 100 µM.
For `Oc1c(Cl)cc2cc1-c1cc(cc(Cl)c1O)CCc1c(cc(Cl)c(O)c1Cl)-c1cc(Cl)c(c(Cl)c1O)/C=C\2`, the TGI was 16.6 µM in the assay with 786-0 renal; 45.6 µM with U251 CNS; 21.7 µM in the assay with MDA-MB-435; 30.8 µM in the assay on A498 renal; 18 µM with UACC-62 melanoma; 20 µM with LOX IMVI melanoma. This compound also returned a TGI with A549 NSCLC of 23.9 µM.
Consider `Cc1cc(S(=O)(=O)Nc2nc3cscc3c(=O)n2N)c(S)cc1Cl`, for which the TGI in the assay with 786-0 renal was above 100 µM; in the assay on TK-10 renal it was above 100 µM; with U251 CNS it was above 100 µM; with MDA-MB-435, above 100 µM; in the assay on NCI-H522 lung, 77.9 µM; in the assay on SF-539 CNS, above 100 µM. Moreover, the TGI in the assay on UACC-62 melanoma, with LOX IMVI melanoma and with A549 NSCLC was above 100 µM throughout.
For `O=c1c2ccccc2nc(N/N=C/c2ccc([N+](=O)[O-])cc2)n1-c1ccccc1`, the TGI in the assay on 786-0 renal was 20.1 µM; with TK-10 renal, 56.3 µM; in the assay with U251 CNS, 48.4 µM; in the assay with MDA-MB-435, above 100 µM; with NCI-H522 lung it was above 100 µM; with UACC-62 melanoma, above 100 µM. The TGI in the assay with LOX IMVI melanoma and with A549 NSCLC was above 100 µM in each case.
On to `CCC1=C(C[C@H]2NCCc3cc(OC)c(OC)cc32)C[C@H]2c3cc(OC)c(OC)cc3CCN2C1`, for which the TGI in the assay with 786-0 renal is 0.107 µM; in the assay on U251 CNS, 0.188 µM; in the assay on A498 renal it was 0.0497 µM; in the assay with NCI-H522 lung, 0.0688 µM; in the assay with SF-539 CNS, 0.148 µM; with UACC-62 melanoma it was 0.138 µM.
On to `Cc1cc(C)nc(NS(=O)(=O)c2ccc(NNc3c4ccccc4nc4c(C(=O)Nc5ccc(S(=O)(=O)Nc6cc(C)on6)cc5)cccc34)cc2)n1`, for which the TGI in the assay on 786-0 renal is above 100 µM; with TK-10 renal, above 100 µM; in the assay with U251 CNS it was 79.2 µM; in the assay with MDA-MB-435, above 100 µM; with NCI-H522 lung, 82.1 µM; in the assay on SF-539 CNS it was above 100 µM. Also, the TGI with UACC-62 melanoma was above 100 µM; in the assay on LOX IMVI melanoma, 88.8 µM; in the assay with A549 NSCLC it was above 100 µM.
`Cc1cc2c(=O)c3ccc(Cl)cc3[nH]c2c(C(N)=O)c1C`: the TGI in the assay on 786-0 renal, in the assay on TK-10 renal, with U251 CNS, in the assay with A498 renal, with NCI-H522 lung and in the assay on SF-539 CNS was above 100 µM each time. Further, the TGI in the assay with UACC-62 melanoma, with LOX IMVI melanoma and with A549 NSCLC was above 100 µM throughout.
For the compound `Cc1cc(=O)[nH]c(NNC(C#N)c2ccccc2O)n1` (configuration not stated), the TGI with 786-0 renal was above 100 µM; in the assay on TK-10 renal, above 100 µM; in the assay on U251 CNS, above 100 µM; with NCI-H522 lung, above 100 µM; in the assay on SF-539 CNS, above 100 µM; in the assay with UACC-62 melanoma, 70.3 µM. Further, the TGI with LOX IMVI melanoma and in the assay on A549 NSCLC was above 100 µM in each case.
Regarding `Cc1cc(C)c2c(c1)C/C(=C\c1cccc(C)c1C(=O)O)C2=O`, the TGI in the assay with 786-0 renal, in the assay on TK-10 renal, with A498 renal, with NCI-H522 lung, in the assay on SF-539 CNS and with UACC-62 melanoma was above 100 µM each time. The TGI in the assay with LOX IMVI melanoma and in the assay on A549 NSCLC was above 100 µM each time.
On to `Cc1cc2nc3ccccc3n2c2ccccc12`, for which the TGI with 786-0 renal, with TK-10 renal, in the assay on U251 CNS, in the assay on MDA-MB-435, in the assay on NCI-H522 lung and with SF-539 CNS was above 10 µM in each case. Besides, the TGI with UACC-62 melanoma, in the assay with LOX IMVI melanoma and in the assay on A549 NSCLC was above 10 µM each time.
In the case of `COC(=O)C(Cc1c[nH]c2ccccc12)NC(=O)C(Cc1c[nH]c2ccccc12)NC(=O)C(Cc1c[nH]c2ccccc12)NC(=O)C(Cc1c[nH]c2ccccc12)NC(=O)C(Cc1c[nH]c2ccccc12)NC(=O)C(Cc1c[nH]c2ccccc12)NC(=O)C(Cc1c[nH]c2ccccc12)NC(=O)OC(C)(C)C` (configuration not stated) (Boc-WWWWWWW-OMe; configuration not given here), the TGI with 786-0 renal, with TK-10 renal, with U251 CNS, with MDA-MB-435, with NCI-H522 lung and in the assay with UACC-62 melanoma was above 100 µM in each case. Besides, the TGI in the assay on LOX IMVI melanoma and in the assay on A549 NSCLC was above 100 µM throughout.
Take `O=C(O)CSC1=NNC2(C(=O)N1)c1ccccc1-c1ccccc12`: the TGI in the assay with 786-0 renal, in the assay on TK-10 renal, in the assay with MDA-MB-435, in the assay on NCI-H522 lung, with SF-539 CNS and with UACC-62 melanoma was above 10 µM each time. Moreover, the TGI in the assay with LOX IMVI melanoma and in the assay with A549 NSCLC was above 10 µM each time.
Regarding `CCOC(=O)CCC(NC(=O)C(Cc1ccc([N+](=O)[O-])cc1)NC(=O)OC(C)(C)C)C(=O)NC(CCC(=O)OCC)C(=O)OCC` (configuration not stated) (Boc-[Phe(4-NO2)]-Glu(OEt)-Glu(OEt)-OEt; configuration not given here), the TGI is 30.5 µM with 786-0 renal; 30.1 µM in the assay with TK-10 renal; 44.6 µM in the assay with U251 CNS; 36.4 µM in the assay on A498 renal; 32.4 µM in the assay with UACC-62 melanoma; above 100 µM with A549 NSCLC.
Consider `O=C(c1ccccc1)c1nnn(Cc2ccccc2Cn2nnc(C(=O)c3ccccc3)c2C(=O)c2ccccc2)c1C(=O)c1ccccc1`, for which the TGI in the assay on 786-0 renal, in the assay on TK-10 renal, in the assay with U251 CNS, with A498 renal, with NCI-H522 lung and with SF-539 CNS was above 100 µM each time. For the same compound, the TGI in the assay with UACC-62 melanoma, in the assay with LOX IMVI melanoma and in the assay on A549 NSCLC was above 100 µM throughout.
Regarding `O=C1c2ccncc2C(=O)c2c(O)ccc(O)c21`, the TGI was 19.2 µM in the assay with 786-0 renal; 42.3 µM in the assay with TK-10 renal; 30.3 µM with U251 CNS; 33.1 µM with A498 renal; 13.4 µM with SF-539 CNS; 10.6 µM with UACC-62 melanoma. For the same compound, the TGI with LOX IMVI melanoma came out at 18.3 µM; with A549 NSCLC, 18.1 µM.
For the compound `CCOC(=O)CCc1cn2cc(Br)nc(OC)c2n1`, the TGI was above 100 µM with 786-0 renal; above 100 µM with TK-10 renal; above 100 µM in the assay on U251 CNS; 26 µM with MDA-MB-435; above 100 µM in the assay with NCI-H522 lung; above 100 µM with SF-539 CNS. Moreover, the TGI in the assay on UACC-62 melanoma, with LOX IMVI melanoma and with A549 NSCLC was above 100 µM each time.
Take `S=C1C(=Nc2ccccc2)N(c2ccccc2)/C(=N\c2cccc[n+]2Cc2ccccc2)N1c1ccccc1`: the TGI in the assay with 786-0 renal came out at 30 µM; in the assay with TK-10 renal, 99.8 µM; with MDA-MB-435 it was 22.3 µM; in the assay with NCI-H522 lung, 31.2 µM; with SF-539 CNS, 34 µM; in the assay with UACC-62 melanoma it was 25 µM. The compound also gave a TGI in the assay with A549 NSCLC of 52.7 µM.
